Key:
SCLC strain SHP-77 = assay: Colorimetric tetrazolium (MTT) assay for cell survival, SCLC strain SHP-77; type: cell-based, human
Procedure, shortened: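 MTT assay: cells seeded overnight, treated in triplicate across a concentration range for 4 days at 37 °C, 5% CO2. On day 5, MTT was added for 4 h; formazan was dissolved in acidified isopropanol and absorbance read.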

[1] = biological target: T1, cloned human bradykinin B2 receptors (Homo sapiens, UniProt P30411); assay: Anti-bradykinin activity on cloned human B2 receptors (CHO cells, Cytosensor microphysiometer); type: cell-based; conditions: cloned human B2 receptors; pD2 for bradykinin is 11; higher numbers indicate higher potency
T1 sequence (P30411 1-391): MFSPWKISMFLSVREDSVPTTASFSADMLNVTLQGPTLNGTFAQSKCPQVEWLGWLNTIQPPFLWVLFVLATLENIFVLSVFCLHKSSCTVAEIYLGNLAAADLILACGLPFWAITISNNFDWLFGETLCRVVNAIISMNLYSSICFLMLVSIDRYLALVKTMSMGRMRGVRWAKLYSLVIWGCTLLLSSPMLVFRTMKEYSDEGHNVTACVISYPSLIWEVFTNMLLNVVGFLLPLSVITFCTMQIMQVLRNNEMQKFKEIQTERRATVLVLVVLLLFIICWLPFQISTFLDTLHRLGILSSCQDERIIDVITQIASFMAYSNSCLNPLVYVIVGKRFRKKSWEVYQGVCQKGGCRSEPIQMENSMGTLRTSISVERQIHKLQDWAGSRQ
Description: In general, Anti-bradykinin activity was determined by the classical guinea pig ileum assay and on Chinese hamster ovary (CHO) cells expressing cloned human bradykinin B2 receptors. Anti-tumor activity was determined on cultured human cancer cell lines using the standard tetrazolium (MTT) assay.
Chinese hamster ovary cells containing cloned and expressed human bradykinin B2 receptors were grown in cell cups of the Cytosensor microphysiometer in Ham's F-12 medium supplemented with sodium pyruvate and 10% FBS (Gibco 11765-054). For assay the cells were transferred to Ham's F-12 without bicarbonate or serum (Gibco 21700-075) and placed in the Cytosensor. Concentration-response curves were constructed to bradykinin in the presence or absence of new compounds.

[2] = tested on: bradykinin response of isolated guinea pig ileum; assay: Anti-bradykinin activity on isolated guinea pig ileum
Procedure, shortened: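 Bradykinin concentration-effect curves were run in the absence and presence of compound. Tissue: 25 mm terminal ileum from male Hartley guinea pigs fasted overnight, held at 1 g tension in O2/CO2-bubbled Krebs' solution after 1 h equilibration.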

[3] = Table 1, higher numbers indicate higher potency

Compound | GPI: pA2 for bradykinin antagonist activity on isolated guinea pig ileum [2, 3] | MTT: ED50 for killing of SCLC strain SHP-77 in vitro (SCLC strain SHP-77; Table 1, SHP-77, MTT, 4 days) | further results
O=C(C=Cc1cccnc1)Nc1ccc(C(=O)NC(Cc2ccc3ccccc3c2)C(=O)O)cc1 (stereo not shown) [M422] | – | – | MTT: ED50 for killing of SCLC strain SHP-77 in vitro (SCLC strain SHP-77; SCLC strain SHP-77 in vitro): 52 µM; HUMAN: pA2 for bradykinin antagonist potency on cloned human B2 receptors [1]: Inact
CC1(C)CC(NC(=O)[C@H](CC(=O)O)NC(=O)[C@H](Cc2ccc3ccccc3c2)NC(=O)CCCCCCCCCCC(=O)N[C@@H](Cc2ccc3ccccc3c2)C(=O)N[C@@H](CC(=O)O)C(=O)NC2CC(C)(C)NC(C)(C)C2)CC(C)(C)N1 [M432] | – | – | MTT: ED50 for killing of SCLC strain SHP-77 in vitro (SCLC strain SHP-77; SCLC strain SHP-77 in vitro): 70 µM; HUMAN: pA2 for bradykinin antagonist potency on cloned human B2 receptors [1]: 10
F5c-DArg-Arg-Aud-DIgl-PFF-Arg [M838] | 5.1 | 7.4 µM | –
F5c-DArg-Arg-Aud-DIgl-hPhe-Arg [M774] | Inact | 8 µM | –
F5c-DArg-Arg-Aud-DTic-Oic-Arg [M788] | 5 | 9 µM | –
F5c-DArg-Arg-Aud-Ser-D5F5-Oic-Arg [M888] | 6.6 | 12.5 µM | –
F5c-DArg-Arg-Aud-Ser-DIgl-Oic-Arg [M856] | 5.4 | 21 µM | –
F5c-DArg-Arg-Eac-Ser-DF5F-Oic-Arg [M796] | 6.5 | 31 µM | –
F5c-DArg-Arg-Eac-Ser-DIgl-Oic-Arg [M852] | 5.9 | Inact | –
F5c-DArg-Arg-Eac-Ser-DTic-Oic-Arg [M792] | 4.9 | >100 µM | –
F5c-DArg-Arg-Pro-Hyp-Gly-Igl-Ser-DIgl-Oic-Arg [B10238] | 8.1 | 150 µM | –
F5c-DArg-Eac-2Nal-Arg [M696] | 5.1 | Inact | –
F5c-DArg-Eac-hPhe-Arg [M738] | 5.3 | Inact | –
F5c-F5F-Arg [M810] | 4.6 | 40 µM | –
F5c-Gly-mABz-2Nal-Arg [M196] | 5.1 | Inact | –
F5c-Lys-Ser-DF5F-Oic-Arg [M802] | 6.3 | Inact | –
F5c-MBC-Arg [M528] | Inact | Inact | –
F5c-MFF-Arg [M826] | Inact | 76 µM | –
F5c-NMF-Arg [M686] | 5.6 | 29 µM | –
F5c-PFF-Arg [M718] | 5.1 | 9 µM | –
F5c-PaF(Ppa)-Arg [M720] | 4.8 | Inact | –
F5c-pABz-2Nal-Arg [M176] | 5.4 | Inact | –

Compound | GPI: pA2 for bradykinin antagonist activity on isolated guinea pig ileum [2, 3] | MTT: ED50 for killing of SCLC strain SHP-77 in vitro (SCLC strain SHP-77; Table 1, SHP-77, MTT, 4 days) | further results
Leu-DTrp-Phe-DTrp-DNMF-Eac2-DArg-Arg-Pro-Hyp-Gly-Igl-Ser-DIgl-Oic-Arg [B10160] | 6.3 | 10 µM | –
Leu-Leu-DTrp-Phe-DTrp-DNMF-Eac2-DArg-Arg-Pro-Hyp-Gly-Igl-Ser-Digl-Oic-Arg [B10162] | 6.3 | 7 µM | –
Moti-DArg-Arg-Pro-Hyp-Gly-Igl-Ser-DIgl-Oic-Arg [B10100-1] | 7.8 | 4 µM | –
Moti-DArg-Arg-Pro-Hyp-Gly-Thi-Ser-DIgl-Oic-Arg [B10104-3] | 8.1 | 20 µM | –
Ppa-hPhe-Arg [M708] | 5.8 | Inact | –
SBEC-(DArg-Arg-Eac-Ser-DF5F-Nc7G-Arg)2 [M1028] | 6.7 | 28 µM | –
SUB-(DArg-Arg-Eac-Ser-DF5f-Nc7G-Arg)2 [M1024] | 7.2 | 14 µM | –
SUIM-(DArg-Arg-Pro-Hyp-Gly-Igl-Ser-DIgl-Oic-Arg-NH2)2 [B10082] | 7.2 | 0.7 µM | –
TDIM-(DArg-Arg-Pro-Hyp-Gly-Igl-Ser-DIgl-Oic-Arg)2 [B10100-2] | 8.0 | 1 µM | –
TDIM-(DArg-Arg-Pro-Hyp-Gly-Thi-Ser-DIgl-Oic-Arg)2 [B10104-2] | 8.0 | 4 µM | –
c[Ava-Igl-Ser-DF5F-Oic-Arg] [M824] | – | – | GPI: pA2 for bradykinin antagonist activity on isolated guinea pig ileum ([2]; Table 3, cyclic peptides): 5.2; MTT: ED50 for killing of SCLC strain SHP-77 in vitro (SCLC strain SHP-77; Table 3, cyclic peptides): Inact
c[Bala-DArg-Arg-Eac-Ser-DF5F-Oic-Arg] [M910] | – | – | GPI: pA2 for bradykinin antagonist activity on isolated guinea pig ileum ([2]; Table 3, cyclic peptides): 5.2; MTT: ED50 for killing of SCLC strain SHP-77 in vitro (SCLC strain SHP-77; Table 3, cyclic peptides): 42 µM
c[DArg-Arg-Add-DF5F-Oic-Arg] [M870] | – | – | GPI: pA2 for bradykinin antagonist activity on isolated guinea pig ileum ([2]; Table 3, cyclic peptides): 5.3; MTT: ED50 for killing of SCLC strain SHP-77 in vitro (SCLC strain SHP-77; Table 3, cyclic peptides): 5.5 µM
c[DArg-Arg-Add-Ser-DF5F-Oic-Arg] [M874] | – | – | GPI: pA2 for bradykinin antagonist activity on isolated guinea pig ileum ([2]; Table 3, cyclic peptides): 5.0; MTT: ED50 for killing of SCLC strain SHP-77 in vitro (SCLC strain SHP-77; Table 3, cyclic peptides): 11 µM
c[DArg-Arg-Add-Ser-DIgl-PFF-Arg] [M882] | – | – | GPI: pA2 for bradykinin antagonist activity on isolated guinea pig ileum ([2]; Table 3, cyclic peptides): Inact; MTT: ED50 for killing of SCLC strain SHP-77 in vitro (SCLC strain SHP-77; Table 3, cyclic peptides): 4.5 µM
c[DArg-Arg-Aud-DF5F-Oic-Arg] [M868-2] | – | – | GPI: pA2 for bradykinin antagonist activity on isolated guinea pig ileum ([2]; Table 3, cyclic peptides): 6.1; MTT: ED50 for killing of SCLC strain SHP-77 in vitro (SCLC strain SHP-77; Table 3, cyclic peptides): 9.2 µM
c[DArg-Arg-Aud-DIgl-PFF-Arg] [M850] | – | – | GPI: pA2 for bradykinin antagonist activity on isolated guinea pig ileum ([2]; Table 3, cyclic peptides): 5.1; MTT: ED50 for killing of SCLC strain SHP-77 in vitro (SCLC strain SHP-77; Table 3, cyclic peptides): 1.4 µM
c[DArg-Arg-Aud-Ser-DF5F-Oic-Arg] [M876] | – | – | GPI: pA2 for bradykinin antagonist activity on isolated guinea pig ileum ([2]; Table 3, cyclic peptides): 5.4; MTT: ED50 for killing of SCLC strain SHP-77 in vitro (SCLC strain SHP-77; Table 3, cyclic peptides): 22.5 µM
c[DArg-Arg-Ava-Ser-DF5F-Oic-Arg] [M908] | – | – | GPI: pA2 for bradykinin antagonist activity on isolated guinea pig ileum ([2]; Table 3, cyclic peptides): 4.9; MTT: ED50 for killing of SCLC strain SHP-77 in vitro (SCLC strain SHP-77; Table 3, cyclic peptides): 40 µM
c[DArg-Arg-Ava-Ser-DIgl-PFF-Arg] [M902] | – | – | GPI: pA2 for bradykinin antagonist activity on isolated guinea pig ileum ([2]; Table 3, cyclic peptides): 5.5; MTT: ED50 for killing of SCLC strain SHP-77 in vitro (SCLC strain SHP-77; Table 3, cyclic peptides): 30 µM
c[DArg-Arg-Eac-Ser-DF5F-Oic-Arg] [M872] | – | – | GPI: pA2 for bradykinin antagonist activity on isolated guinea pig ileum ([2]; Table 3, cyclic peptides): Inact; MTT: ED50 for killing of SCLC strain SHP-77 in vitro (SCLC strain SHP-77; Table 3, cyclic peptides): 2.2 µM
c[DArg-Arg-Pro-Hyp-Gly-Igl-Ser-DIgl-Oic-Arg] [B10302] | – | – | GPI: pA2 for bradykinin antagonist activity on isolated guinea pig ileum ([2]; Table 3, cyclic peptides): 5.2; MTT: ED50 for killing of SCLC strain SHP-77 in vitro (SCLC strain SHP-77; Table 3, cyclic peptides): Inact
